What all share (type): biochemical
Test [1] deals with T1, recombinant human MAO-A (monoamine oxidase-A) (Homo sapiens, UniProt P21397).
T1 construct: purchased Sigma-Aldrich
T1 sequence (P21397 1-527): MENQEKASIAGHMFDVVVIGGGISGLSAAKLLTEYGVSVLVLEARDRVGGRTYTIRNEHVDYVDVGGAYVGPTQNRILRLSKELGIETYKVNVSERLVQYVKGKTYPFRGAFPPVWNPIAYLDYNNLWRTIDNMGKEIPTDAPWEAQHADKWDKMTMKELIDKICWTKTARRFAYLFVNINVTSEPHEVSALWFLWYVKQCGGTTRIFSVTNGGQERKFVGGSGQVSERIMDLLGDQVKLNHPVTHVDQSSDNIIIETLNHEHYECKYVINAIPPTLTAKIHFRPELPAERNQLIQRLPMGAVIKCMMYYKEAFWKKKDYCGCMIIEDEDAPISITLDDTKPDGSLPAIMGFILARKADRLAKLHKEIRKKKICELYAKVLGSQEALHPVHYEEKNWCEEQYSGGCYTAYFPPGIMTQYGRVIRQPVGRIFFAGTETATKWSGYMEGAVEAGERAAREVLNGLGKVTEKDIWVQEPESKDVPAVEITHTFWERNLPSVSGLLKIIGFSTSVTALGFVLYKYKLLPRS
As to the kind of experiment: Amplex Red HRP-coupled amine oxidase assay, recombinant human MAO-A. The following applies: 0.5 mM tyramine substrate, read-out: Inhibitory activity (IC50, nM) MAO-A. As for the experimental part: (§1) The activities of the compounds according to the present invention against recombinant human Lysyl Oxidase-Like 2 (recombinant human LOXL2, R&D systems) were evaluated by measuring the levels of hydrogen peroxide in the HRP (horseradish peroxidase) coupled reactions, with the Amplex Red Hydrogen Peroxide Assay Kit (Molecular Probes, Invitrogen, USA). The tests were carried out at 37° C., and putrescine was used as a substrate. In the HRP coupling reaction, the oxidation of 10-acetyl-3,7-dihydroxyphenoxazine (Amplex Red reagent) by hydrogen peroxide generates a fluorescent product, i.e., resorufin. Briefly, the test compounds were dissolved in dimethyl sulfoxide (DMSO) at a concentration of 20 mM. Dose-response measurements were carried out by serial dilutions in DMSO to generate a six-point curve. The upper concentration was adjusted according to the potency of the compound, and then diluted with the reaction buffer to obtain a final DMSO concentration of 1%. Purified human LOXL2 in 50 mM sodium phosphate buffer (pH7.4) was added to each well of a 96 well black plate. The test compounds dissolved in DMSO were incubated with the human LOXL2 enzyme at 37° C. for 60 minutes. After the incubation for 60 minutes, a reaction mixture containing 400 μM Amplex Red reagent, 30 mM putrescine, and 2 U/mL HRP in 50 mM sodium phosphate buffer (pH 7.4) was added to each well. Fluorescence was measured with a microplate reader (Flexstation3, Molecular Devices), under the conditions of excitation at 530 nm and emission at 590 nm, 1 hour after the addition of the mixture. Inhibition by each compound was measured as % reduction in signal, compared to the control without an inhibitor (diluted DMSO only). The data were fixed to a four-variable logistic model, and […] values were calculated using the GraphPad Prism program.
(§2) And, the activities of the compounds according to the present invention against recombinant human MAO-A (monoamine oxidase-A, Sigma-Aldrich) and recombinant human MAO-B (monoamine oxidase-B, Sigma-Aldrich) were evaluated in a similar manner to the activity evaluation method for recombinant human LOXL2, using 0.5 mM tyramine and 1 mM benzylamine as a substrate, respectively. In addition, the activities of the compounds according to the present invention against recombinant human DAO (diamine oxidase, R&D systems) were evaluated in a similar manner to the activity evaluation method for recombinant human LOXL2, using 1 mM putrescine as a substrate.

The target of test [2] is T2, recombinant human MAO-B (monoamine oxidase-B) (Homo sapiens, UniProt P27338).
T2 construct: purchased Sigma-Aldrich
T2 sequence (P27338 1-520): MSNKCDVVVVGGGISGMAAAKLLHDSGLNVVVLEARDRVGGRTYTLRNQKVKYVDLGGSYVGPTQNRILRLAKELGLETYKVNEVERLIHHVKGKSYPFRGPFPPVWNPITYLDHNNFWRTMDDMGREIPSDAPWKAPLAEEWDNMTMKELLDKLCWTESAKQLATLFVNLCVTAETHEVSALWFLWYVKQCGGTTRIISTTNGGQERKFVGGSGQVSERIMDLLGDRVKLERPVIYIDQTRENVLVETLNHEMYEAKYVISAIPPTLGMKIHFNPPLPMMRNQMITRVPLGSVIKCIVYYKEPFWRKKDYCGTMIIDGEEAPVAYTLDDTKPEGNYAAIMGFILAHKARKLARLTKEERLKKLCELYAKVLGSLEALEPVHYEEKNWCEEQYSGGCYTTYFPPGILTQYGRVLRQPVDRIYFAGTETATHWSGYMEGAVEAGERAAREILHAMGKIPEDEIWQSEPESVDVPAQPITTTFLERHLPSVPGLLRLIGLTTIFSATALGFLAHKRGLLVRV
Briefly: Amplex Red HRP-coupled amine oxidase assay, recombinant human MAO-B. The following applies: 1 mM benzylamine substrate, read-out: Inhibitory activity (IC50, nM) MAO-B. On the procedure:
as §1, §2

Test [3] deals with T3, recombinant human Lysyl Oxidase-Like 2 (LOXL2) (Homo sapiens, UniProt Q9Y4K0).
T3 construct: purchased R&D systems
T3 sequence (Q9Y4K0 26-774): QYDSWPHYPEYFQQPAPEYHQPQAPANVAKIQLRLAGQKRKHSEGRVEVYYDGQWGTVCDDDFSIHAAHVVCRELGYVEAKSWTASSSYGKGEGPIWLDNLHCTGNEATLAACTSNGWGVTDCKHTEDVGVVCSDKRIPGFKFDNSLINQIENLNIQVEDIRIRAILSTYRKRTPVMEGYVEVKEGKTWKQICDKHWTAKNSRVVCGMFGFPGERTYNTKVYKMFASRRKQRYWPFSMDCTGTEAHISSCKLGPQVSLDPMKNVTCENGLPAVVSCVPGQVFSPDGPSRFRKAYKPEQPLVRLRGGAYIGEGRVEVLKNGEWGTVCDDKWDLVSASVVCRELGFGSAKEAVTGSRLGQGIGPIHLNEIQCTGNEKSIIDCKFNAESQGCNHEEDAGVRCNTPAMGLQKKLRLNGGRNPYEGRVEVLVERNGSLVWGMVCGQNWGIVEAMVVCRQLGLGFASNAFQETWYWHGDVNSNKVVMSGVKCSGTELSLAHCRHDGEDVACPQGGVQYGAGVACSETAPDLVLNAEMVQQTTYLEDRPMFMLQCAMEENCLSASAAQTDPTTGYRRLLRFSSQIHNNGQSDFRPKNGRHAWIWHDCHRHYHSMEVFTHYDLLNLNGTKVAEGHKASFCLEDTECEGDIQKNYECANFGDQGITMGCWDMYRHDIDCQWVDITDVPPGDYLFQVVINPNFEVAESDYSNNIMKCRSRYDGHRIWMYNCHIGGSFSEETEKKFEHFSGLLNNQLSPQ
As to the kind of experiment: Amplex Red HRP-coupled amine oxidase assay, recombinant human LOXL2. Conditions: 60 min incubation with enzyme at 37° C., putrescine substrate, read-out: Inhibitory activity (IC50, nM) human LOXL2. In short, it runs like this: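 Putrescine substrate (30 mM) in 50 mM sodium phosphate pH 7.4, 37 °C; compounds preincubated 60 min with enzyme, 1% DMSO final, six-point curves. H2O2 detected via 400 μM Amplex Red/2 U/mL HRP, fluorescence (ex 530/em 590 nm) after 1 h; IC50 from four-parameter logistic fit of % signal reduction.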

Test [4] has as its target T4, recombinant human DAO (diamine oxidase) (Homo sapiens, UniProt P19801).
T4 construct: purchased R&D systems
T4 sequence (P19801 20-751): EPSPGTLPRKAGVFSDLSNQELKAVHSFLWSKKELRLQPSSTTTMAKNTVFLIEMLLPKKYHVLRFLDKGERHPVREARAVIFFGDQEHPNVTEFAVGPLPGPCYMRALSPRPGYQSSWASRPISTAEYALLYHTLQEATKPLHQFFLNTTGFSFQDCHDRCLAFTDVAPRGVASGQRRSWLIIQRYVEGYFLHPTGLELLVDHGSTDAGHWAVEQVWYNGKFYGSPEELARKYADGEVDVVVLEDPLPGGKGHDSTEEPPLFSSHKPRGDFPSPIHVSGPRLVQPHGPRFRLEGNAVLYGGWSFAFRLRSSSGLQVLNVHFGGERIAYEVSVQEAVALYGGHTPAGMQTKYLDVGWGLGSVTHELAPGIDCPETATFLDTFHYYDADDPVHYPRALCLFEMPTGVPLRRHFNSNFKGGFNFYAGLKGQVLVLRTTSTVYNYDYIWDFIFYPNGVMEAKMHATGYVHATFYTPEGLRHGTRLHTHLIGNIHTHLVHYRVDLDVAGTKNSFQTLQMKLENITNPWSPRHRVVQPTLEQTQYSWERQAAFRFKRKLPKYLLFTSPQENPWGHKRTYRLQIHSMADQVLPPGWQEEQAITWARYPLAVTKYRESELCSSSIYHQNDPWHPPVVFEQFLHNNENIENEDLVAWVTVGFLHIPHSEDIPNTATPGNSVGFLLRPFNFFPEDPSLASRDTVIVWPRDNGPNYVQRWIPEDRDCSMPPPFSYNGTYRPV
Briefly: Amplex Red HRP-coupled amine oxidase assay, recombinant human DAO. Conditions: 1 mM putrescine substrate, read-out: Inhibitory activity (IC50, nM) DAO. As for the experimental part:
as §1, §2

Our source for the IC50 values is patent publication US12686665B2, “Bicyclic fused ring derivative or salt thereof and pharmaceutical composition comprising same” (YUHAN CORPORATION, priority 2021, dated 2026).

Structures can show the parent of a compound that is named as a salt.

As usually defined, the IC50 is the concentration that inhibits the measured activity by half. Regarding `CNS(=O)(=O)c1cccc(-c2cc(C(=O)OC)cc3c2ncn3C/C(F)=C/CN)c1` [Example 30, methyl (Z)-1-(4-amino-2-fluorobut-2-en-1-yl)-4-(3-(N-methylsulfamoyl)phenyl)-1H-benzo[d]imidazol-6-carboxylate hydrochloride], the IC50 in test [1] is above 100000 nM; in test [2], above 100000 nM; in test [3], 29.7 nM; in test [4] it was 3460 nM.

With `NC/C=C(\F)Cn1cnc2c(-c3cncc(Cl)c3)cc(C(F)(F)F)cc21` [Example 174, (Z)-4-(4-(5-chloropyridin-3-yl)-6-(trifluoromethyl)-1H-benzo[d]imidazol-1-yl)-3-fluoro-but-2-en-1-amine hydrochloride], the concentration for half-maximal inhibition (IC50) in test [1] is 81200 nM; in test [2], above 100000 nM; in test [3], 304 nM; in test [4], 2210 nM.

`CNS(=O)(=O)c1cccc(-c2cc(F)cc3c2ncn3C/C(F)=C/CN)c1` [Example 10, (Z)-3-(1-(4-amino-2-fluorobut-2-en-1-yl)-6-fluoro-1H-benzo[d]imidazol-4-yl)-N-methylbenzenesulfonamide hydrochloride]: the IC50 was 65500 nM in test [1], above 100000 nM in test [2], 22 nM in test [3] and 3920 nM in test [4].

Consider `CC(=O)c1ccc(F)c(-c2cc(C#N)cc3c2ncn3C/C(F)=C/CN)c1` [Example 184, (Z)-4-(5-acetyl-2-fluorophenyl)-1-(4-amino-2-fluorobut-2-en-1-yl)-1H-benzo[d]imidazol-6-carbonitrile hydrochloride], for which the IC50 in test [1] is above 100000 nM; in test [2] it was above 100000 nM; in test [3], 99 nM.

As for `CCS(=O)(=O)c1cccc(-c2cc(C(=O)OC)cc3c2ncn3C/C(F)=C/CN)c1` [Example 34, methyl (Z)-1-(4-amino-2-fluorobut-2-en-1-yl)-4-(3-(ethylsulfonyl)phenyl)-1H-benzo[d]imidazol-6-carboxylate hydrochloride], the IC50 in test [1] was above 100000 nM; in test [2] it was above 100000 nM; in test [3], 37.6 nM; in test [4], 495 nM.

Regarding `Cn1nccc1-c1cc(C#N)cc2c1ncn2C/C(F)=C/CN` [Example 191, (Z)-1-(4-amino-2-fluorobut-2-en-1-yl)-4-(1-methyl-1H-pyrazol-5-yl)-1H-benzo[d]imidazol-6-carbonitrile hydrochloride], the IC50 in test [1] is above 100000 nM; in test [2] it was above 100000 nM; in test [3] it was 95.5 nM.

Consider `N#Cc1cc(-c2cccc(S(=O)(=O)N3CCCC3)c2)c2ncn(C/C(F)=C/CN)c2c1` [Example 181, (Z)-1-(4-amino-2-fluorobut-2-en-1-yl)-4-(3-(pyrrolidin-1-ylsulfonyl)phenyl)-1H-benzo[d]imidazol-6-carbonitrile hydrochloride], for which the IC50 was above 100000 nM in test [1], above 100000 nM in test [2] and 43.1 nM in test [3].

As for `CCn1nccc1-c1cc(C#N)cc2c1ncn2C/C(F)=C/CN` [Example 192, (Z)-1-(4-amino-2-fluorobut-2-en-1-yl)-4-(1-ethyl-1H-pyrazol-5-yl)-1H-benzo[d]imidazol-6-carbonitrile hydrochloride], the IC50 in test [1] is above 100000 nM; in test [2], above 100000 nM; in test [3], 137 nM.

As for `CN(C)S(=O)(=O)c1cccc(-c2cc(C#N)cc3c2ncn3C/C(F)=C/CN)c1` [Example 182, (Z)-3-(1-(4-amino-2-fluorobut-2-en-1-yl)-6-cyano-1H-benzo[d]imidazol-4-yl)-N,N-dimethylbenzenesulfonamide hydrochloride], the IC50 in test [1] was above 100000 nM; in test [2] it was above 100000 nM; in test [3] it was 28.7 nM.

In the case of `COC(=O)c1cc(-c2cc(S(=O)(=O)NC3CC3)ccc2OC)c2nnn(C/C(F)=C/CN)c2c1` [Example 120, methyl (Z)-1-(4-amino-2-fluorobut-2-en-1-yl)-4-(5-(N-cyclopropylsulfamoyl)-2-methoxyphenyl)-1H-benzo[d][1,2,3]triazol-6-carboxylate hydrochloride], the figures for the IC50 in test [2], in test [3] and in test [4] were 97000 nM, 17.1 nM and 2830 nM, respectively.
